EC50 data for 12 molecules are collected here from US10294234B2, “HIV inhibitor compounds” (priority 2017, dated 2019).

Like-named read-outs stand apart in the source and are kept apart here.

The test concerns HIV-1 (IIIB) in MT-4 cells. In words: MT-4 HIV assay. It counts as cell-based. Conditions: Human immunodeficiency virus 1, MT4, 120 h. Put shortly:
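MT-4 cells infected with HIV-1 IIIB (1:250 stock dilution) were incubated with 1:3 serially diluted compounds in RPMI with 10% FBS for 5 days at 37 °C. Cell Titer Glo luminescence was the readout. Plates included mock-infected wells, no-drug wells and 5 uM AZT controls.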

Where [1] appears, read: HIV-1 (IIIB), MT-4 cells, 5 days, Cell Titer Glo, read-out: EC50.

By EC50 is commonly meant the midpoint of the concentration-response curve.

As for `COC(=O)N[C@H](C(=O)N[C@@H](Cc1ccc(C#Cc2cnc(N3CC4CCC(C3)N4C3COC3)nc2)cc1)[C@@H](O)CN(Cc1ccc(-c2ccn(C(F)F)n2)cc1F)NC(=O)[C@@H](NC(=O)OC)C(C)(C)C(F)(F)F)C(C)(C)C(F)(F)F` [Example 118, Methyl ((5S,8S,9S,14S)-11-(4-(1-(difluoromethyl)-1H-pyrazol-3-yl)-2-fluorobenzyl)-16,16,16-trifluoro-9-hydroxy-15,15-dimethyl-8-(4-((2-(8-(oxetan-3-yl)-3,8-diazabicyclo[3.2.1]octan-3-yl)pyrimidin-5-yl)ethynyl)benzyl)-3,6,13-trioxo-5-(1,1,1-trifluoro-2-methylpropan-2-yl)-2-oxa-4,7,11,12-tetraazahexadecan-14-yl)carbamate], under setting [1], the EC50 worked out at 10.6 nM.

Take `COC(=O)N[C@H](C(=O)N[C@@H](Cc1ccc(C#Cc2ccc(N3CC4CCC(C3)N4C3COC3)nc2)cc1)[C@@H](O)CN(Cc1c(F)cc(-c2ccn(C(F)F)n2)cc1F)NC(=O)[C@@H](NC(=O)OC1CC1)C(C)(C)C)C(C)(C)C(F)(F)F` [Example 187, cyclopropyl ((5S,8S,9S,14S)-11-(4-(1-(difluoromethyl)-1H-pyrazol-3-yl)-2,6-difluorobenzyl)-9-hydroxy-15,15-dimethyl-8-(4-((6-(8-(oxetan-3-yl)-3,8-diazabicyclo[3.2.1]octan-3-yl)pyridin-3-yl)ethynyl)benzyl)-3,6,13-trioxo-5-(1,1,1-trifluoro-2-methylpropan-2-yl)-2-oxa-4,7,11,12-tetraazahexadecan-14-yl)carbamate]: the EC50 under setting [1] was 4.7 nM.

As to `CCC(=O)N[C@H](C(=O)N[C@@H](Cc1ccc(C#Cc2cnc(N3CC4CCC(C3)N4C3COC3)nc2)cc1)[C@@H](O)CN(Cc1c(F)cc(-c2ccn(C(F)F)n2)cc1F)NC(=O)[C@@H](NC(=O)CC)C(C)(C)C(F)(F)F)C(C)(C)C(F)(F)F` [Example 181, (2S)—N-((2S,3S)-4-(1-(4-(1-(difluoromethyl)-1H-pyrazol-3-yl)-2,6-difluorobenzyl)-2-((S)-4,4,4-trifluoro-3,3-dimethyl-2-propionamidobutanoyl)hydrazinyl)-3-hydroxy-1-(4-((2-(8-(oxetan-3-yl)-3,8-diazabicyclo[3.2.1]octan-3-yl)pyrimidin-5-yl)ethynyl)phenyl)butan-2-yl)-4,4,4-trifluoro-3,3-dimethyl-2-propionamidobutanamide], under setting [1], the EC50 was found to be 8.5 nM.

Take `COC(=O)N[C@H](C(=O)N[C@@H](Cc1ccc(C#Cc2ccc(N3CC4CCC(C3)N4[C@@H]3CCOC3)nc2)cc1)[C@@H](O)CN(Cc1c(F)cc(-c2ccn(C(F)F)n2)cc1F)NC(=O)[C@@H](NC(=O)OC)C(C)(C)C(F)(F)F)C(C)(C)C(F)(F)F` [Example 143, Methyl ((5S,8S,9S,14S)-11-(4-(1-(difluoromethyl)-1H-pyrazol-3-yl)-2,6-difluorobenzyl)-16,16,16-trifluoro-9-hydroxy-15,15-dimethyl-3,6,13-trioxo-8-(4-((6-(8-((R)-tetrahydrofuran-3-yl)-3,8-diazabicyclo[3.2.1]octan-3-yl)pyridin-3-yl)ethynyl)benzyl)-5-(1,1,1-trifluoro-2-methylpropan-2-yl)-2-oxa-4,7,11,12-tetraazahexadecan-14-yl)carbamate]: the EC50 under setting [1] was 7.79 nM.

For the molecule `COC(=O)N[C@H](C(=O)N[C@@H](Cc1ccc(C#Cc2ccc(N3CCN4CCOC[C@H]4C3)nc2)cc1)[C@@H](O)CN(Cc1c(F)cc(-c2ccn(C3CC3)n2)cc1F)NC(=O)[C@@H](NC(=O)OC)C(C)(C)C(F)(F)F)C(C)(C)C(F)(F)F` [Example 136, methyl ((5S,8S,9S,14S)-11-(4-(1-cyclopropyl-1H-pyrazol-3-yl)-2,6-difluorobenzyl)-16,16,16-trifluoro-8-(4-((6-((R)-hexahydropyrazino[2,1-c][1,4]oxazin-8(1H)-yl)pyridin-3-yl)ethynyl)benzyl)-9-hydroxy-15,15-dimethyl-3,6,13-trioxo-5-(1,1,1-trifluoro-2-methylpropan-2-yl)-2-oxa-4,7,11,12-tetraazahexadecan-14-yl)carbamate], the EC50 under setting [1] turned out to be 3.85 nM.

For the molecule `COC(=O)N[C@H](C(=O)N[C@@H](Cc1ccc(C#Cc2ccc(N3CCN4CCOC[C@@H]4C3)nc2)cc1)[C@@H](O)CN(Cc1c(F)cc(-c2ccn(C(F)F)n2)cc1F)NC(=O)[C@@H](NC(=O)OC)C(C)(C)C(F)(F)F)C(C)(C)C(F)(F)F` [Example 55, Methyl ((5S,8S,9S,14S)-11-(4-(1-(difluoromethyl)-1H-pyrazol-3-yl)-2,6-difluorobenzyl)-16,16,16-trifluoro-8-(4-((6-((S)-hexahydropyrazino[2,1-c][1,4]oxazin-8(1H)-yl)pyridin-3-yl)ethynyl)benzyl)-9-hydroxy-15,15-dimethyl-3,6,13-trioxo-5-(1,1,1-trifluoro-2-methylpropan-2-yl)-2-oxa-4,7,11,12-tetraazahexadecan-14-yl)carbamate], under setting [1], the EC50 came to 4.44 nM.

For `COC(=O)N[C@H](C(=O)N[C@@H](Cc1ccc(C#Cc2ccc(N3CC4(C)CN(C5COC5)CC(C)(C3)C4=O)nc2)cc1)[C@@H](O)CN(Cc1c(F)cc(-c2cnn(C(F)F)c2)cc1F)NC(=O)[C@@H](NC(=O)OC)C(C)(C)C(F)(F)F)C(C)(C)C(F)(F)F` [Example 62, Methyl ((5S,8S,9S,14S)-11-(4-(1-(difluoromethyl)-1H-pyrazol-4-yl)-2,6-difluorobenzyl)-8-(4-((6-(1,5-dimethyl-7-(oxetan-3-yl)-9-oxo-3,7-diazabicyclo[3.3.1]nonan-3-yl)pyridin-3-yl)ethynyl)benzyl)-16,16,16-trifluoro-9-hydroxy-15,15-dimethyl-3,6,13-trioxo-5-(1,1,1-trifluoro-2-methylpropan-2-yl)-2-oxa-4,7,11,12-tetraazahexadecan-14-yl)carbamate], the EC50 worked out at 8.83 nM.

`COC(=O)N[C@H](C(=O)NN(Cc1c(F)cc(-c2nnc(C3CC3)s2)cc1F)C[C@H](O)[C@H](Cc1ccc(C#Cc2ccc(N3CC4CCC(C3)N4C3COC3)nc2)cc1)NC(=O)[C@@H](NC(=O)OC)C(C)(C)C(F)(F)F)C(C)(C)C` [Example 76, Methyl ((5S,8S,9S,14S)-11-(4-(5-cyclopropyl-1,3,4-thiadiazol-2-yl)-2,6-difluorobenzyl)-9-hydroxy-15,15-dimethyl-8-(4-((6-(8-(oxetan-3-yl)-3,8-diazabicyclo[3.2.1]octan-3-yl)pyridin-3-yl)ethynyl)benzyl)-3,6,13-trioxo-5-(1,1,1-trifluoro-2-methylpropan-2-yl)-2-oxa-4,7,11,12-tetraazahexadecan-14-yl)carbamate]: the EC50 under setting [1] came to 3.53 nM.

Molecule `COC(=O)N[C@H](C(=O)N[C@H](C(=O)N[C@@H](Cc1ccc(C#Cc2cnc(N3CC4CC(C3)N4C3COC3)nc2)cc1)[C@@H](O)CN(Cc1c(F)cc(-c2ccn(CC(F)F)n2)cc1F)NC(=O)[C@@H](NC(=O)OC)C(C)(C)C)C(C)(C)C)C(C)C` [Example 222, Methyl ((5S,8S,11S,12S,17S)-8-(tert-butyl)-14-(4-(1-(2,2-difluoroethyl)-1H-pyrazol-3-yl)-2,6-difluorobenzyl)-12-hydroxy-5-isopropyl-18,18-dimethyl-11-(4-((2-(6-(oxetan-3-yl)-3,6-diazabicyclo[3.1.1]heptan-3-yl)pyrimidin-5-yl)ethynyl)benzyl)-3,6,9,16-tetraoxo-2-oxa-4,7,10,14,15-pentaazanonadecane-17-yl)carbamate] returned an EC50 of 12.9 nM.

Turning to `COC(=O)N[C@H](C(=O)N[C@@H](Cc1ccc(C#Cc2ccc(N3CCN(C4COC4)CC3)nc2)cc1)[C@@H](O)CN(Cc1ccc(-c2cnn(C(F)F)c2)cc1)NC(=O)[C@@H](NC(=O)OC)C(C)(C)C(F)(F)F)C(C)(C)C(F)(F)F` [Example 113, Methyl ((5S,8S,9S,14S)-11-(4-(1-(difluoromethyl)-1H-pyrazol-4-yl)benzyl)-16,16,16-trifluoro-9-hydroxy-15,15-dimethyl-8-(4-((6-(4-(oxetan-3-yl)piperazin-1-yl)pyridin-3-yl)ethynyl)benzyl)-3,6,13-trioxo-5-(1,1,1-trifluoro-2-methylpropan-2-yl)-2-oxa-4,7,11,12-tetraazahexadecan-14-yl)carbamate], the EC50 under setting [1] came to 6.01 nM.

For the molecule `COC(=O)N[C@H](C(=O)NN(Cc1c(F)cc(-c2ccn(C3CC3)n2)cc1F)C[C@H](O)[C@H](Cc1ccc(C#Cc2ccc(N3CCN(C4COC4)CC3)nc2)cc1)NC(=O)[C@@H](NC(=O)OC)C(C)(C)C(F)(F)F)C(C)(C)C` [Example 91, Methyl ((5S,8S,9S,14S)-11-(4-(1-cyclopropyl-1H-pyrazol-3-yl)-2,6-difluorobenzyl)-9-hydroxy-15,15-dimethyl-8-(4-((6-(4-(oxetan-3-yl)piperazin-1-yl)pyridin-3-yl)ethynyl)benzyl)-3,6,13-trioxo-5-(1,1,1-trifluoro-2-methylpropan-2-yl)-2-oxa-4,7,11,12-tetraazahexadecan-14-yl)carbamate], the EC50 under setting [1] was 3.69 nM.

As to `COC(=O)N[C@H](C(=O)N[C@@H](Cc1ccc(-c2ccc(N3C[C@H]4C[C@@H]3CN4C3COC3)nc2)cc1)[C@@H](O)CN(Cc1c(F)cc(-c2ccn(C(F)F)n2)cc1F)NC(=O)[C@@H](NC(=O)OC)C(C)(C)C(F)(F)F)C(C)(C)C(F)(F)F` [Example 196, Methyl ((5S,8S,9S,14S)-11-(4-(1-(difluoromethyl)-1H-pyrazol-3-yl)-2,6-difluorobenzyl)-16,16,16-trifluoro-9-hydroxy-15,15-dimethyl-8-(4-(6-((1R,4R)-5-(oxetan-3-yl)-2,5-diazabicyclo[2.2.1]heptan-2-yl)pyridin-3-yl)benzyl)-3,6,13-trioxo-5-(1,1,1-trifluoro-2-methylpropan-2-yl)-2-oxa-4,7,11,12-tetraazahexadecan-14-yl)carbamate], the EC50 is 10.5 nM.
